Experimental data from ChEMBL document CHEMBL2321805, “N-methyldihydroquinazolinone derivatives of Retro-2 with enhanced efficacy against Shiga toxin” (J Med Chem, 2013).
Calls of active or inactive are those of the source. The calls are words filed in the database; no cut-off is given here.

System: HeLa
Assay: Cytoprotective activity against shiga toxin-induced cytotoxicity in human HeLa cells at 30 uM incubated for 4 hrs prior to shiga toxin addition measured after 20 hrs by liquid scintillation counting analysis relative to Retro-2
Assay type: functional

Point of comparison: CN1c2ccccc2C(=O)N(c2ccccc2)C1c1ccc(-c2cccs2)s1 (racemic), Activity 84%. Against it:
- Cc1ccc(C2Nc3ccccc3C(=O)N2c2cccc(Cl)c2)s1 (racemic) — lower, 54%
- Cc1ccc(C2Nc3ccccc3C(=O)N2C(C)C)s1 (racemic) — lower, 0%
- CN1c2ccccc2C(=O)N(c2ccccc2)C1c1ccc(C#N)s1 (racemic) — lower, 0%
- O=C1c2ccccc2NC(c2ccccc2)N1c1ccccc1 (racemic) — lower, 0%
- COc1cc(-c2ccc(C3N(C)c4ccccc4C(=O)N3c3ccccc3)s2)cc(OC)c1OC (racemic) — lower, 0%
- CN1c2ccccc2C(=O)N(c2ccccc2)C1c1ccc(-c2ccccn2)s1 (racemic) — higher, 94.6%
- O=C1c2ccccc2NC(c2cccnc2)N1c1ccccc1 (racemic) — lower, 0%
- Cc1ccc(C2Nc3cc(F)ccc3C(=O)N2c2ccccc2)s1 (racemic) — lower, 0%
- CN1c2ccccc2C(=O)N(c2ccccc2)C1c1ccc(-n2cccc2)s1 (racemic) — lower, 12%
- CN1c2ccccc2C(=O)N(c2ccccc2)C1c1ccc(C=O)s1 (racemic) — lower, 0%
- Cc1csc(C2Nc3ccccc3C(=O)N2c2ccccc2)c1 (racemic) — lower, 1%
- CN1c2ccccc2C(=O)N(c2ccccc2)C1c1ccc(-c2cccc([N+](=O)[O-])c2)s1 (racemic) — lower, 0%
- Cc1ccsc1C1Nc2ccccc2C(=O)N1c1ccccc1 (racemic) — lower, 0%
- COc1ccc(-c2ccc(C3N(C)c4ccccc4C(=O)N3c3ccccc3)s2)cc1OC (racemic) — lower, 1.5%
- COC(=O)c1ccc(-c2ccc(C3N(C)c4ccccc4C(=O)N3c3ccccc3)s2)cc1 (racemic) — lower, 2.9%
- Cc1ccc(C2N(C)c3ccccc3C(=O)N2c2ccccc2Br)s1 (racemic) — lower, 10.5%
- Cc1ccc(C2N(C)c3ccccc3C(=O)N2c2ccccc2[N+](=O)[O-])s1 (racemic) — lower, 33%
- Cc1ccc(C2Nc3ccccc3C(=O)N2c2cccc(C(F)(F)F)c2)s1 (racemic) — lower, 0%
- COc1ccc(-c2ccc(C3N(C)c4ccccc4C(=O)N3c3ccccc3)s2)cc1 (racemic) — lower, 26.2%
- CCCCN1c2ccccc2C(=O)N(c2ccccc2)C1c1ccc(C)s1 (racemic) — lower, 0%
- Cc1ccc(C2N(C)c3ccccc3C(=O)N2c2ccccc2C(F)(F)F)s1 (racemic) — lower, 3%
- Cc1ccc(C2Nc3ccccc3C(=O)N2Cc2ccccc2)s1 (racemic) — lower, 0%
- CCCc1ccc(C2Nc3ccccc3C(=O)N2c2ccccc2)s1 (racemic) — lower, 54%
- Cc1ccc(C2Nc3ccccc3C(=O)N2c2ccccc2Br)s1 (racemic) — lower, 0%
- Cc1ccc(C2N(C)c3ccccc3C(=O)N2c2ccccc2OC(F)(F)F)s1 (racemic) — lower, 4.4%
- Cc1ccc(-c2ccc(C3N(C)c4ccccc4C(=O)N3c3ccccc3)s2)cc1[N+](=O)[O-] (racemic) — lower, 0%
- CN1c2ccccc2C(=O)N(c2ccccc2)C1c1ccc(-c2cccc3ccccc23)s1 (racemic) — lower, 0%
- Cc1ccc(C2Nc3c(C)cccc3C(=O)N2c2ccccc2)s1 (racemic) — lower, 4%
- COc1ccc2c(c1)C(=O)N(c1ccccc1)C(c1ccc(C)s1)N2 (racemic) — lower, 2%
- CSc1ccccc1N1C(=O)c2ccccc2NC1c1ccc(C)s1 (racemic) — lower, 75%
- COc1ccc(CCN2C(=O)c3ccccc3NC2c2ccc(C)s2)cc1 (racemic) — lower, 0%
- Cc1ccc2c(c1)C(=O)N(c1ccccc1)C(c1ccc(C)s1)N2 (racemic) — lower, 11.2%
- Cc1ccc(C2N(C)c3ccccc3C(=O)N2c2ccccc2OCc2ccccc2)s1 (racemic) — lower, 9.8%
- CN1c2ccccc2C(=O)N(c2ccccc2)C1c1ccc(CCl)s1 (racemic) — lower, 0%
- Cc1ccc(C2Nc3ccccc3C(=O)N2c2ccc(Br)cc2)s1 (racemic) — lower, 0%

With Cc1ccc(C2N(C)c3ccccc3C(=O)N2c2ccccc2)s1 (single isomer, unassigned; form 1) the Activity was “inactive”.
